Test results from patent publication US8377884B2, “Variants of C-type natriuretic peptides” (Biomarin Pharmaceutical Inc., priority 2007, dated 2013).
Read-outs that look alike come from different tables or passages of the source. Bridge positions count the residues as written; N and C are the ends. Square brackets hold non-standard residues; d marks the D form. Ends that are not written are not given here. Peptide text beside a SMILES is read from it. tBuAla = CC(C)(C)C[C@H](N)C(=O)O; PEO24 = monodispersed, 1.2 kDa

Biological target: T1, NPR-B (Mus musculus, UniProt Q6VVW5)
T1 construct: Murine NIH3T3 cells express endogenously the CNP signaling receptor, NPR-B; endogenous in cells; host or cells: NIH3T3 (murine fibroblasts)
T1 sequence (Q6VVW5 17-1047): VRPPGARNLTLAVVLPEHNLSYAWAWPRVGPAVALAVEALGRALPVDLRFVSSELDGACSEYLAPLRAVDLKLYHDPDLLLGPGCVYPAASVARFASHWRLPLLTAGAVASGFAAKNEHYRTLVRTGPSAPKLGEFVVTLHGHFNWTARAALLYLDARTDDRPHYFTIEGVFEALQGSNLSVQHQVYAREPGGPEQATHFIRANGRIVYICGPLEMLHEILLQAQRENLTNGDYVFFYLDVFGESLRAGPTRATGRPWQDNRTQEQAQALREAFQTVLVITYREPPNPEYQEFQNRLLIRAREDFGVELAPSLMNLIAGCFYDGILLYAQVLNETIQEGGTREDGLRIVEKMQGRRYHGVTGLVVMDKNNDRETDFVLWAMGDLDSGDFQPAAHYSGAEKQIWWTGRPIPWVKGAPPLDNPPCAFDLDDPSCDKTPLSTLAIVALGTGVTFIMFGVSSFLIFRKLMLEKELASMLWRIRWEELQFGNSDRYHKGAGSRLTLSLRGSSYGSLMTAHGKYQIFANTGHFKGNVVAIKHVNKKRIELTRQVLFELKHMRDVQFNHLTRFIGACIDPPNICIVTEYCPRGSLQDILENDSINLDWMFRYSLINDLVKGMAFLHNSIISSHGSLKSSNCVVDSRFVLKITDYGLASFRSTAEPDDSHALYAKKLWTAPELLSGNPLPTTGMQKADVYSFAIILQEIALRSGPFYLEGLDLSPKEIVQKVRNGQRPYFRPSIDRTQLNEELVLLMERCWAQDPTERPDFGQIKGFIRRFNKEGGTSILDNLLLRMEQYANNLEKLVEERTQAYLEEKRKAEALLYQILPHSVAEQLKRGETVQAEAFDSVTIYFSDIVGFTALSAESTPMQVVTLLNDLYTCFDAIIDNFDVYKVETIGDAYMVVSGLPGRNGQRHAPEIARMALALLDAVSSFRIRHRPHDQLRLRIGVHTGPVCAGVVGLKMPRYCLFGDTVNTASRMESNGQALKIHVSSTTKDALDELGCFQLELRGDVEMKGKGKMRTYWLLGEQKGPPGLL
Experiment: Stimulation of cGMP production in NIH3T3 cells
Assay type: cell-based, Murine
Conditions: for cGMP response relative to 1 uM CNP22 (%) at 0.01 µM: read-out: cGMP Response rel. to 1 uM CNP22, 10 nM; for cGMP response relative to 1 uM CNP22 (%) at 1 µM: read-out: cGMP Response rel. to 1 uM CNP22, 1 uM

[1] = NIH3T3 cells, 10 nM natriuretic peptide, normalized to cell number and cGMP production with 1 uM wtCNP22
[2] = NIH3T3 cells, 1 uM natriuretic peptide, normalized to cell number and cGMP production with 1 uM wtCNP22

Row | cGMP response relative to 1 uM CNP22 (%) at 0.01 µM [1] [%] | cGMP response relative to 1 uM CNP22 (%) at 1 µM [2] [%] | Compound | also measured
1 | 50 ± 1 | 105 ± 12 | CC[C@H](C)[C@@H]1NC(=O)[C@H](CCCNC(=N)N)NC(=O)[C@H](CC(=O)O)NC(=O)[C@H](CC(C)C)NC(=O)[C@H](CCCCN)NC(=O)[C@H](CC(C)C)NC(=O)CNC(=O)[C@H](Cc2ccccc2)NC(=O)[C@@H](NC(=O)CNC(=O)[C@H](CCCNC(=N)N)NC(=O)[C@H](CO)NC(=O)[C@H](CC(C)C)NC(=O)CNC(=O)[C@H](CCCNC(=N)N)NC(=O)[C@@H]2CCCN2C(=O)[C@H](CC(N)=O)NC(=O)[C@H](C)NC(=O)CN)CSSC[C@@H](C(=O)O)NC(=O)CNC(=O)[C@H](CC(C)C)NC(=O)CNC(=O)[C@H](CO)NC(=O)[C@H](CCSC)NC(=O)[C@H](CO)NC(=O)CNC1=O [CI] (H-GANPRGLSRGCFGLKLDRIGSMSGLGC-OH; disulfide 11-27 (inferred); N-terminus and C-terminus assumed) | –
2 | 9 | 45 | CC[C@H](C)[C@@H]1NC(=O)[C@H](CCCNC(=N)N)NC(=O)[C@H](CC(=O)O)NC(=O)[C@H](CC(C)C)NC(=O)[C@H](CCC(N)=O)NC(=O)[C@H](CC(C)C)NC(=O)CNC(=O)[C@H](Cc2ccccc2)NC(=O)[C@@H](NC(=O)CNC(=O)[C@H](CCCNC(=N)N)NC(=O)[C@H](CO)NC(=O)[C@H](CC(C)C)NC(=O)CN)CSSC[C@@H](C(=O)O)NC(=O)CNC(=O)[C@H](CC(C)C)NC(=O)CNC(=O)[C@H](CO)NC(=O)[C@H](CCSC)NC(=O)[C@H](CO)NC(=O)CNC1=O [BG] (H-GLSRGCFGLQLDRIGSMSGLGC-OH; disulfide 6-22) | –
3 | – | – | PEO24-CNP22, K4R: CNP22, K4R conjugated at the N-terminus to PEO24 (PEO24-GLSRGCFGLKLDRIGSMSGLGC; disulfide 6-22 (inferred); UniProt P23582 105-126, looked up, variant K4R) | cGMP Response rel. to 1 uM CNP22, 10 nM [1]: 15; cGMP Response rel. to 1 uM CNP22, 1 uM [2]: 56
4 | – | – | CC[C@H](C)[C@@H]1NC(=O)[C@H](CCCNC(=N)N)NC(=O)[C@H](CC(=O)O)NC(=O)[C@H](CC(C)C)NC(=O)[C@H](CCCCN)NC(=O)[C@H](CC(C)C)NC(=O)CNC(=O)[C@@H](Cc2ccccc2)NC(=O)[C@@H](NC(=O)CNC(=O)[C@H](CCCCN)NC(=O)[C@H](CO)NC(=O)[C@H](CC(C)C)NC(=O)CN)CSSC[C@@H](C(=O)O)NC(=O)CNC(=O)[C@H](CC(C)C)NC(=O)CNC(=O)[C@H](CO)NC(=O)[C@H](CCSC)NC(=O)[C@H](CO)NC(=O)CNC1=O [E] | cGMP response relative to 1 uM CNP22 (%) at 0.01 µM (NIH3T3, […]): 2%; cGMP response relative to 1 uM CNP22 (%) at 1 µM (NIH3T3, […]): 6%
5 | 1 | 21 | CC[C@H](C)[C@@H]1NC(=O)[C@H](CCCNC(=N)N)NC(=O)[C@H](CC(=O)O)NC(=O)[C@H](CC(C)C)NC(=O)[C@H](CCCCN)NC(=O)[C@H](CC(C)C)NC(=O)CNC(=O)[C@H](Cc2ccccc2)NC(=O)[C@@H](NC(=O)CNC(=O)[C@H](CCCNC(=N)N)NC(=O)[C@H](CO)NC(=O)[C@H](CC(C)C)NC(=O)CN)CSSC[C@@H](C(=O)O)NC(=O)CNC(=O)[C@H](CC(C)(C)C)NC(=O)CNC(=O)[C@H](CO)NC(=O)[C@H](CCSC)NC(=O)[C@H](CO)NC(=O)CNC1=O [AK] (H-GLSRGCFGLKLDRIGSMSG[tBuAla]GC-OH; disulfide 6-22 (inferred); N-terminus and C-terminus assumed) | –
